Data set [1] relates to diabetic ob/ob mice. The data set is described as follows: Treatment of diabetic ob/ob mice with UD1 and metformin: post-prandial glucose. The settings on record: 75 mg/kg UD1, 100 mg/kg Met; for mean post-prandial glucose level / mean glucose level: n=10; for mean glucose level: time 0 hours (baseline). Format: in vivo. On the procedure: Before treatment, the mice were assigned to four groups based on baseline glucose levels and body weight (n=10 for each group). Each group of mice was dosed with one of the following: (1) a control substance; (2) 75 mg/kg UD1; (3) 100 mg/kg metformin (Met); or (4) 75 mg/kg UD1 and 100 mg/kg metformin (Met). Post-prandial glucose was measured at time points of 1, 3, 5, 7, and 9 hours following dosing.

Data set [2] is described as follows: Pharmacokinetic evaluation of three oral UD1 dosage forms in male beagle dogs. Format: in vivo. The settings on record: 100 mg of UD1, fasted, mean of 3 dogs. The protocol:
For all nine dogs, 100 mg of UD1 was administered orally. Each dog was dosed in a fasted state, where food was provided 4 hours following dosing. Blood samples were taken for pharmacokinetic (PK) evaluation at the following time intervals following dosing: 0.5, 1.0, 2.0, 4.0, 6.0, 8.0, 12.0, and 24.0 hours.

As for `CN(C)C(=N)NC(=N)N` [Met, N,N-dimethylimidodicarbonimidic diamide, reference compound], the “change in glucose levels relative to control, AUC 0-9 hrs” value in data set [1] is -39 mg·h/dL. In addition, the “mean post-prandial glucose level” value is listed as 357 mg/dL in data set [1] (1 hour following dosing); 334 mg/dL in data set [1] (3 hours following dosing); 459 mg/dL in data set [1] (5 hours following dosing); 501 mg/dL in data set [1] (7 hours following dosing); 484 mg/dL in data set [1] (9 hours following dosing). The same compound showed a mean glucose level in data set [1] of 389 mg/dL.
In general, Cmax refers to the highest concentration seen after dosing. For the compound `CCCO[C@H]1CC[C@H](N(C(=O)Nc2ncc(SCC(=O)O)s2)C2CCCCC2)CC1.CN(C)C(=N)NC(=N)N` [Metformin Salt, 1,1-dimethylbiguanide salt of {2-[3-cyclohexyl-3-(trans-4-propoxy-cyclohexyl)-ureido]-thiazol-5-ylsulfanyl}-acetic acid], in data set [2], the “AUC0-∞” value came to 15802 ng·h/mL and the Cmax is 6985 ng/mL.
`CCCO[C@H]1CC[C@H](N(C(=O)Nc2ncc(SCC(=O)O)s2)C2CCCCC2)CC1` [UD1, {2-[3-cyclohexyl-3-(trans-4-propoxy-cyclohexyl)-ureido]-thiazol-5-ylsulfanyl}-acetic acid]: the “change in glucose levels relative to control, AUC 0-9 hrs” value in data set [1] was -748 mg·h/dL. Moreover, the “mean post-prandial glucose level” value in data set [1] (1 hour following dosing) amounted to 321 mg/dL; in data set [1] (3 hours following dosing) it was 254 mg/dL; in data set [1] (5 hours following dosing) it was 376 mg/dL; in data set [1] (7 hours following dosing), 382 mg/dL; in data set [1] (9 hours following dosing) it was 394 mg/dL. The compound also registered a mean glucose level in data set [1] of 391 mg/dL.
